Measured values: patent US5350765A, “Ether-containing inhibitors of 5-lipoxygenase” (Abbott Laboratories, priority 1993, dated 1994)
pIC50: −log10 of the molar value.

Biological target: T1, 5-Lipoxygenase (Homo sapiens, UniProt P09917)
T1 construct: endogenous in cells; host or cells: human heparinized whole blood (blood leukocytes), stimulated with calcium ionophore A23187
T1 sequence (P09917 1-674): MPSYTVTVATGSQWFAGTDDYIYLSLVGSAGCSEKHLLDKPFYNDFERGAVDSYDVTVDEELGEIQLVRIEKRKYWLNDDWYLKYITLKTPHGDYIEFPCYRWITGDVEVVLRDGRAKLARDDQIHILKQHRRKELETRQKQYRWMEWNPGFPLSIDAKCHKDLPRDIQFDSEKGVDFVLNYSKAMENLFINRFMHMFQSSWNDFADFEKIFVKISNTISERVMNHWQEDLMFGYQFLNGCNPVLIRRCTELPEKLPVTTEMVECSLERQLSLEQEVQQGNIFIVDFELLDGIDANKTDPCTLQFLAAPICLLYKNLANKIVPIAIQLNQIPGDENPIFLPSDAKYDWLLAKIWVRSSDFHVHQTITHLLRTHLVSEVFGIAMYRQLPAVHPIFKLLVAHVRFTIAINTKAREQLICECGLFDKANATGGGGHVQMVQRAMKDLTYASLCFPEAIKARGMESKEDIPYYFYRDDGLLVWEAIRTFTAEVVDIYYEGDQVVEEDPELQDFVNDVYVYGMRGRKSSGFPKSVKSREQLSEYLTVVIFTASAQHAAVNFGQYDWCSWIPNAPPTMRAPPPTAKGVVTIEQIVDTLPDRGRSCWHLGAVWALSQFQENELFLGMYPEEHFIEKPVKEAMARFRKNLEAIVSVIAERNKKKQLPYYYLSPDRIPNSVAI
Assay: Inhibition of calcium ionophore-induced LTB4 biosynthesis in human whole blood
Assay type: cell-based
Details: A23187 8.3 μM; for pIC50: human heparinized whole blood, 15 min preincubation at 37° C., 30 min, LTB4 by radioimmunoassay, read-out: IC50, in vitro inhibitory potency against 5-lipoxygenase from stimulated LTB4 formation in human whole blood
Procedure: Inhibition of leukotriene biosynthesis was evaluated in an assay, involving calcium ionophore-induced LTB4 biosynthesis expressed human whole blood. Human heparinized whole blood was preincubated with test compounds or vehicle for 15 min at 37° C. followed by calcium ionophore A23187 challenge (final concentration of 8.3 μM) and the reaction terminated after 30 min by adding two volumes of methanol containing prostaglandin B2 as an internal recovery standard. The methanol extract was analyzed for LTB4 using a commercially available radioimmunoassay.

[1] = human whole blood, read-out: % inhibition of stimulated LTB4 formation in human whole blood

pIC50 | inhibition at 12.5 µM [1] [%] | Structure (SMILES) | also measured
5.42 | – | COC1(C#CCOCc2ccc3ccccc3c2)CCOCC1 [Example 1, 4-methoxy-4-[3-((napth-2-yl)methoxy)-prop-1-ynyl]tetrahydropyran] | –
– | 95 | COC1(C#CC(C)OCc2ccc3ccccc3c2)CCOCC1 (centres unmarked) [Example 2, 4-methoxy-4-[3-methyl-3-(((napth-2yl)methoxy))-prop-1-ynyl]tetrahydropyran] | –
6.15 | – | COC1(/C=C/COCc2ccc3ccccc3c2)CCOCC1 [Example 3] | –
– | 99 | COC1(/C=C/C(C)OCc2ccc3ccccc3c2)CCOCC1 (stereo not drawn) [Example 4, 4-methoxy-4-[3-methyl-3-((napth-2yl)methoxy)- trans-prop-1-enyl]tetrahydropyran] | –
5.82 | – | COC1(CCCOCc2ccc3ccccc3c2)CCOCC1 [Example 5, 4-methoxy-4-[3-((napth-2yl)methoxy)-prop-1-yl]tetrahydropyran] | –
– | – | COC1(/C=C/COCc2ccc3c(ccc(=O)n3C)c2)CCOCC1 [Example 6, 4-methoxy-4-[3-((1,2-dihydro-1-methyl-2-oxoquinolin-6-yl)methoxy)-trans-prop-1-enyl]tetrahydropyran] | inhibition at 0.39 µM [1]: 51%
– | 11 | COC1(/C=C/COCc2ccc(-c3ccccc3)cc2)CCOCC1 [Example 8, 4-methoxy-4-[3-((4-phenylphen-1-yl)methoxy)-trans-prop-1-enyl]tetrahydropyran] | –
– | – | COC1(/C=C/CSc2ccc3ccccc3c2)CCOCC1 [Example 19, 4-methoxy-4-[3-(napth-2-ylthioxy)-trans-prop-1-enyl]tetrahydropyran] | inhibition at 0.1 µM (at 0.10 μM, human whole blood, read-out: % inhibition of stimulated LTB4 formation in human whole blood): 34%
6.59 | – | COC1(/C=C/C(=O)NCc2ccc3ccccc3c2)CCOCC1 [Example 20, 3-(4-methoxytetrahydropyran-4-yl)-N-((napth-2-yl)methyl)-trans-propionyl amide] | –
– | – | COC1(/C=C/C(=O)NCc2ccc3c(ccc(=O)n3C)c2)CCOCC1 [Example 21] | inhibition at 0.39 µM [1]: 50%
– | 18 | COC1(/C=C/COCC#Cc2ccccn2)CCOCC1 [Example 22, 4-methoxy-4-[3-((2-(pyrid-2-yl)ethynyl)methoxy)-trans-propen-1-yl]tetrahydropyran] | –
